Legend:
Experiment in all cases: relative viability (nuclei count vs DMSO), 5 days (fraction); higher = more cells survive
[1] = compound: C1/C(=C\C2=CC=CS2)/C(=O)/C(=C/C3=CC=CS3)/C1 + N=C(N)NC(=N)NCCc1ccccc1 [Phenformin] (partner 250 µM)
Procedure, shortened: (§1)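 Lung cancer cell lines were seeded in 1536-well plates and dosed by pin tool the next day, with either a single drug or a fixed anchor-drug dose combined with five library-drug doses (not always all listed) spaced in √10 steps. Five days later, one step fixed the cells and stained their nuclei (final 0.05% Triton X-100, 1% formaldehyde, 1 ug/ml Hoechst), and nuclei were counted on 4× images. Relative viability is the nuclei count in treated wells divided by the count in vehicle wells, and each value is the median of duplicate plates.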

TPCA-1 + Luminespib = compound: C1=CC(=CC=C1C2=CC(=C(S2)NC(=O)N)C(=O)N)F [TPCA-1] + CCNC(=O)c1noc(-c2cc(C(C)C)c(O)cc2O)c1-c1ccc(CN2CCOCC2)cc1 [Luminespib] (partner 0.01 µM)
Procedure, shortened: as §1

TPCA-1 + Crizotinib = compound: C1=CC(=CC=C1C2=CC(=C(S2)NC(=O)N)C(=O)N)F [TPCA-1] + C[C@@H](Oc1cc(-c2cnn(C3CCNCC3)c2)cnc1N)c1c(Cl)ccc(F)c1Cl [Crizotinib] (partner 1 µM)
Procedure, shortened: as §1

Lestaurtinib + Lapatinib = compound: C[C@]12O[C@H](C[C@]1(O)CO)n1c3ccccc3c3c4c(c5c6ccccc6n2c5c31)CNC4=O [Lestaurtinib] + CS(=O)(=O)CCNCc1ccc(-c2ccc3ncnc(Nc4ccc(OCc5cccc(F)c5)c(Cl)c4)c3c2)o1 [Lapatinib] (partner 2 µM)
Procedure, shortened: as §1

Row | Cell Line | relative viability ([1]; first compound 0.2 µM) | relative viability ([1]; first compound 0.6325 µM) | relative viability ([1]; first compound 2 µM) | relative viability ([1]; first compound 6.325 µM) | relative viability ([1]; first compound 20 µM) | relative viability (TPCA-1 + Luminespib; first compound 0.04 µM) | relative viability (TPCA-1 + Luminespib; first compound 0.1265 µM) | relative viability (TPCA-1 + Luminespib; first compound 0.4 µM) | relative viability (TPCA-1 + Luminespib; first compound 4 µM) | relative viability (TPCA-1 + Crizotinib; first compound 0.04 µM) | relative viability (TPCA-1 + Crizotinib; first compound 0.1265 µM) | relative viability (TPCA-1 + Crizotinib; first compound 0.4 µM) | relative viability (TPCA-1 + Crizotinib; first compound 1.265 µM) | relative viability (TPCA-1 + Crizotinib; first compound 4 µM) | relative viability (Lestaurtinib + Lapatinib; first compound 0.005 µM) | relative viability (Lestaurtinib + Lapatinib; first compound 0.01581 µM) | relative viability (Lestaurtinib + Lapatinib; first compound 0.05 µM) | relative viability (Lestaurtinib + Lapatinib; first compound 0.1581 µM) | relative viability (Lestaurtinib + Lapatinib; first compound 0.5 µM) | relative viability (TPCA-1 + Luminespib; first compound 1.265 µM)
1 | HCC-44 | 0.161 | 0.27 | 0.278 | 0.21 | 0.161 | 0.958 | 1.03 | 1.02 | 0.983 | 0.798 | 0.708 | 0.76 | 0.681 | 0.644 | 0.985 | 1.14 | 0.851 | 1.14 | 0.479 | 
2 | HCC-78 | 0.654 | 0.78 | 0.945 | 0.603 | 0.695 |  |  |  |  | 0.362 | 0.341 | 0.345 | 0.338 | 0.307 | 0.507 | 1.03 | 0.54 | 0.272 | 0.289 | 
3 | HCC-366 | 0.569 | 0.638 | 0.625 | 0.55 | 0.613 |  |  |  |  | 0.562 | 0.644 | 0.588 | 0.472 | 0.258 | 1.16 | 1.16 | 0.79 | 1 | 0.0272 | 
4 | HCC-827 | 0.426 | 0.414 | 0.433 | 0.411 | 0.388 | 0.675 | 0.496 | 0.531 | 0.201 | 0.948 | 0.924 | 0.899 | 0.83 | 0.567 | 0.201 | 0.197 | 0.212 | 0.188 | 0.192 | 0.598
5 | HOP-62 | 0.686 | 0.714 | 0.531 | 0.664 | 0.672 | 0.98 | 0.924 | 0.93 | 0.812 | 0.974 | 0.865 | 0.974 | 1.05 | 0.641 | 0.889 | 1.17 | 1.02 | 1.08 | 0.93 | 0.893
6 | IA-LM |  |  |  |  |  |  |  |  |  | 0.767 | 0.762 | 0.985 | 0.667 | 0.657 | 1 | 1.06 | 0.91 | 0.905 | 0.396 | 
7 | LC-2-ad | 0.632 | 0.584 | 0.671 | 0.555 | 0.605 | 1.13 | 1.01 | 0.826 | 0.663 | 0.441 | 0.427 | 0.464 | 0.413 | 0.263 | 1.17 | 1.07 | 0.62 | 0.266 | 0.19 | 0.908
8 | LCLC-97TM1 | 0.389 | 0.473 | 0.437 | 0.476 | 0.482 | 0.877 | 0.614 | 0.71 | 0.482 | 0.347 | 0.325 | 0.568 | 0.28 | 0.15 | 1.18 | 1.18 | 0.767 | 0.196 | 0.163 | 0.541
9 | LCLC-103H | 0.326 | 0.329 | 0.361 | 0.288 | 0.356 | 0.97 | 0.99 | 0.852 | 0.752 | 1.12 | 1.03 | 0.96 | 1.03 | 1.03 |  |  |  |  |  | 0.965
